“And” between values parts separate entries of the source, which are not always exact repeats. Equal entries are not always repeated. Numbers after ± are expanded uncertainties.
Assay: molar heat capacity at constant pressure
Settings: 101.33 kPa, Crystal, Small (less than 1 g) adiabatic calorimetry

O.O.O.O.O.O=S(=O)([O-])[O-].[Cu+2] [copper(II) sulfate pentahydrate]
Settings | molar heat capacity at constant pressure
12.24 K | 2.283 ± 0.048 J/K/mol
12.54 K | 2.453 ± 0.05 J/K/mol
12.55 K | 2.432 ± 0.059 J/K/mol
12.62 K | 2.5 ± 0.051 J/K/mol
12.7 K | 2.533 ± 0.052 J/K/mol
13.16 K | 2.801 ± 0.055 J/K/mol
13.47 K | 3.01 ± 0.058 J/K/mol and 3.006 ± 0.069 J/K/mol
13.55 K | 3.048 ± 0.058 J/K/mol
13.62 K | 3.099 ± 0.059 J/K/mol
14.09 K | 3.404 ± 0.063 J/K/mol
14.24 K | 3.51 ± 0.064 J/K/mol
14.39 K | 3.63 ± 0.065 J/K/mol
14.4 K | 3.652 ± 0.079 J/K/mol
14.48 K | 3.676 ± 0.066 J/K/mol
14.55 K | 3.735 ± 0.066 J/K/mol
15 K | 4.062 ± 0.07 J/K/mol
15.33 K | 4.33 ± 0.073 J/K/mol and 4.316 ± 0.073 J/K/mol and 4.374 ± 0.09 J/K/mol
16.27 K | 5.102 ± 0.082 J/K/mol and 5.148 ± 0.1 J/K/mol
16.34 K | 5.147 ± 0.082 J/K/mol
17.21 K | 5.92 ± 0.09 J/K/mol
17.22 K | 5.985 ± 0.11 J/K/mol
17.34 K | 6.038 ± 0.091 J/K/mol
18.16 K | 6.788 ± 0.099 J/K/mol
18.17 K | 6.865 ± 0.13 J/K/mol
18.34 K | 6.974 ± 0.1 J/K/mol
19.12 K | 7.738 ± 0.11 J/K/mol and 7.803 ± 0.14 J/K/mol
19.34 K | 7.95 ± 0.11 J/K/mol
20 K | 8.662 ± 0.12 J/K/mol
20.07 K | 8.711 ± 0.12 J/K/mol
20.08 K | 8.781 ± 0.15 J/K/mol
20.34 K | 8.968 ± 0.12 J/K/mol
21.52 K | 10.37 ± 0.13 J/K/mol and 10.5 ± 0.17 J/K/mol
21.84 K | 10.73 ± 0.13 J/K/mol
22.86 K | 11.97 ± 0.14 J/K/mol
23.43 K | 12.81 ± 0.2 J/K/mol
23.44 K | 12.67 ± 0.15 J/K/mol
23.8 K | 13.12 ± 0.15 J/K/mol
23.86 K | 13.21 ± 0.15 J/K/mol
24.84 K | 14.42 ± 0.16 J/K/mol
25 K | 14.64 ± 0.16 J/K/mol
25.35 K | 15.41 ± 0.22 J/K/mol
25.49 K | 15.25 ± 0.16 J/K/mol
25.75 K | 15.84 ± 0.17 J/K/mol
25.81 K | 15.7 ± 0.17 J/K/mol
26.5 K | 16.59 ± 0.17 J/K/mol
26.79 K | 16.97 ± 0.17 J/K/mol
27.28 K | 18.19 ± 0.25 J/K/mol
27.48 K | 17.9 ± 0.18 J/K/mol
27.72 K | 18.24 ± 0.18 J/K/mol
27.77 K | 18.33 ± 0.18 J/K/mol
28.45 K | 19.31 ± 0.18 J/K/mol
28.75 K | 19.73 ± 0.19 J/K/mol
29.23 K | 20.9 ± 0.27 J/K/mol
29.43 K | 20.68 ± 0.19 J/K/mol
29.7 K | 21.26 ± 0.19 J/K/mol
29.73 K | 21.15 ± 0.19 J/K/mol
30 K | 21.51 ± 0.2 J/K/mol
30.41 K | 22.11 ± 0.21 J/K/mol
30.7 K | 22.53 ± 0.21 J/K/mol
31.22 K | 23.13 ± 0.29 J/K/mol
31.39 K | 23.59 ± 0.21 J/K/mol
31.68 K | 24.03 ± 0.22 J/K/mol and 23.15 ± 0.21 J/K/mol
32.37 K | 25.14 ± 0.22 J/K/mol
32.66 K | 25.56 ± 0.22 J/K/mol
33.19 K | 26.4 ± 0.32 J/K/mol
33.35 K | 26.55 ± 0.23 J/K/mol
33.65 K | 27.01 ± 0.23 J/K/mol
33.66 K | 26.86 ± 0.23 J/K/mol
34.34 K | 28.1 ± 0.24 J/K/mol
34.62 K | 28.57 ± 0.24 J/K/mol
35 K | 29.13 ± 0.25 J/K/mol
35.15 K | 29.64 ± 0.34 J/K/mol
35.31 K | 29.65 ± 0.24 J/K/mol
35.61 K | 30.07 ± 0.25 J/K/mol
35.64 K | 30.19 ± 0.25 J/K/mol
36.17 K | 31.27 ± 0.35 J/K/mol
36.26 K | 31.26 ± 0.25 J/K/mol
36.29 K | 31.18 ± 0.25 J/K/mol
36.59 K | 31.76 ± 0.25 J/K/mol

— the NIST ThermoML archive (doi:10.1016/j.jct.2017.03.026)
